The values below come from PubChem BioAssay (NCI).

Structures are written as SMILES. Where “and” joins values, the source holds several entries; their conditions need not be identical. Equal entries are not always repeated.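 These data come from cells grown in 96-well plates and exposed to compound for 48 hours at five concentrations. GI50 = concentration required for 50% inhibition of growth. Definition used: TGI = concentration required for complete inhibition of growth.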

Common to all, as to test: growth of human tumour cells (NCI), 48 h
Test [1] relates to HCT-15 colon.
Test [2] concerns IGROV1 ovarian.
Test [3] concerns SK-MEL-5 melanoma.
Test [4] has as its system LOX IMVI melanoma.
The subject of test [5] is HCC-2998 colon.
For test [6], the system named is M14 melanoma.
In test [7] the test system is OVCAR-4 ovarian.
Test [8] concerns SK-MEL-2 melanoma.
Test [9] concerns SNB-75 CNS.
Test [10] has as its system SF-539 CNS.

Turning to `C=CCN1C(=O)/C(=c2\sc3n(c2=O)C2C(NN=3)N(CC)C(=O)N2CC)c2ccccc21` (centres undefined), the GI50 was 0.451 µM in test [1]; 0.978 µM in test [2]; 0.421 µM in test [3]; 0.698 µM in test [4]; 1.28 µM in test [5]; 0.446 µM in test [6]. For the same compound, the GI50 in [7] is 1.03 µM; in [8] it was 2.17 µM; in test [9] it was 0.254 µM; in [10], 0.346 µM. The TGI is > 100 µM in test [1]; > 100 µM in test [2]; 2.05 µM in [3]; > 100 µM in test [4]; > 100 µM in test [5]; > 100 µM in test [6]. Also, the TGI in test [7] was > 100 µM; in test [8], > 38.7 µM; in [9], 2.98 µM; in test [10], 2.87 µM.
Consider `CCOc1ccc(Cc2nccc3cc(OCC)c(OCC)cc23)cc1OCC`, for which the GI50 in test [1] is 10.2 µM; in test [2] it was 2.39 µM; in test [3] it was 1.61 µM; in [4], 2.9 µM; in test [5], 5.53 µM; in [6], 9.41 µM. Moreover, the GI50 is 9.74 µM in test [7], 11.7 µM in test [8], 13.4 µM in [9] and 5.87 µM in test [10]. In addition, the TGI was 29.8 µM in test [1]; 12.7 µM in test [2]; 4.19 µM in test [3]; 17 µM in test [4]; 21.3 µM in [5]; 23.5 µM in [6]. For the same compound, the TGI was 26 µM in test [7], 26.1 µM in test [8], 41.9 µM in [9] and 20.7 µM in test [10].
For `COC1=C(OC)C(=O)C(/C=C(\C)C(=O)O)=C(C)C1=O`, the GI50 in test [1], in [2], in [3], in [4], in test [5] and in test [6] was > 100 µM in each case. In addition, the GI50 in [7] is > 100 µM; in test [8], > 100 µM; in test [9], 49.1 µM; in test [10] it was > 100 µM. Moreover, the TGI in test [1], in [2], in [3], in test [4], in [5] and in test [6] was > 100 µM in each case. Further, the TGI in test [7], in test [8], in test [9] and in [10] was > 100 µM in each case.
Turning to `Oc1nc(NCCc2ccccc2)sc1/C=C1\C=Nc2ncccc21`, the GI50 in test [1] is 2.63 µM and 3.15 µM; in [2], 2.51 µM and 3.03 µM; in test [3] it was 2.45 µM and 2.83 µM; in test [4] it was 2.36 µM and 2.61 µM; in test [5] it was 3.6 µM and 6.06 µM; in [6], 3.72 µM and 3.49 µM. The GI50 in [7] is 2.95 µM and 3.69 µM; in [8], 2.4 µM and 2.94 µM; in [9], 1.81 µM and 1.8 µM; in test [10], 1.32 µM and 1.47 µM. In addition, the TGI in test [1] is 13.9 µM and 33.5 µM; in test [2], 18 µM and 50.4 µM; in test [3], 6.67 µM and 7.88 µM; in test [4], 10.6 µM and 9.37 µM; in test [5], 13.2 µM and 24.3 µM; in test [6] it was 12.5 µM and 10.4 µM. The TGI in test [7] was 11.7 µM and 18.7 µM; in [8], 6.65 µM and 9.08 µM; in test [9], 4.11 µM and 4.29 µM; in test [10] it was 3.82 µM and 3.65 µM.
Take `O=C(c1cc(=O)c2ccc(O)cc2o1)c1ccc(Cl)cc1Cl`: the TGI in test [1] is > 100 µM; in test [2] it was > 100 µM; in test [3], > 74.6 µM; in test [4], > 59.1 µM; in test [5] it was 58.8 µM; in [6], 71.3 µM. For the same compound, the TGI in test [7] was > 90.1 µM; in test [8] it was > 100 µM; in [9], > 100 µM; in [10], > 25.4 µM.
On to `c1cncc(CNc2ccccc2-c2nnc(Nc3ccc4c(c3)OCO4)o2)c1`, for which the GI50 in [1] was 0.0578 µM; in test [2], 0.171 µM; in [3], 0.0449 µM; in test [4] it was 0.0547 µM; in test [5], 0.113 µM; in test [6], 0.056 µM. The GI50 in test [7] is 1 µM; in test [8], 0.052 µM; in test [9] it was 0.0246 µM; in test [10], 0.0815 µM. Moreover, the TGI in test [1], in test [2], in test [3], in test [4], in test [6] and in test [7] was > 100 µM in each case. Also, the TGI in test [8] was 91.9 µM; in [9], > 100 µM; in test [10], 0.539 µM.
With `Clc1ccc(-c2nc3c(-c4ccc(Cl)cc4)nc(-c4ccccc4)cn3c2-c2ccc(Cl)cc2)cc1`, the GI50 in test [1] was > 50 µM; in test [2] it was 20.5 µM; in test [3] it was > 50 µM; in test [4], > 50 µM; in test [5] it was > 50 µM; in test [6] it was > 50 µM. Besides, the GI50 in test [7] is > 50 µM; in [8], 26 µM; in test [9], 6.56 µM; in test [10], 21 µM. Further, the TGI in test [1], in test [2], in [3], in test [4], in test [5] and in test [6] was > 50 µM in each case. Besides, the TGI in test [7] is > 50 µM; in test [8], > 50 µM; in test [9], 25.7 µM; in test [10], > 50 µM.
Regarding `C=C1CC[C@@H]2C(C)(C)[C@@H](O)CC[C@@]2(C)[C@@H]1COc1ccc2ccc(=O)oc2c1`, the GI50 in test [1] was 11.5 µM; in test [2] it was 15.1 µM; in test [3], 5.68 µM; in test [4] it was 13.8 µM; in [5], 15.2 µM; in test [6], 12.5 µM. Further, the GI50 was 6.97 µM in test [7], 15.5 µM in test [8], 10.9 µM in [9] and 14.7 µM in test [10]. The TGI in test [1] was 26.8 µM; in test [2], 31.9 µM; in [3], 18 µM; in test [4] it was 27.7 µM; in test [5] it was 31.1 µM; in [6], 27.2 µM. Also, the TGI is 21.6 µM in test [7], 32.8 µM in test [8], 32.1 µM in test [9] and 28.5 µM in [10].
